Results reported in patent US9216999B2, “Substituted pyrrolo[2,3-h][1,6]naphthyridines and compositions thereof as JAK inhibitors” (priority 2011, dated 2015).
Like-named read-outs stand apart in the source and are kept apart here.

What was measured:
Assay type in all cases: biochemical
JAK1 = JAK1 (Homo sapiens (Human), UniProt P23458); experiment: Enzyme assay (Assay Example^a 1), JAK1; conditions: ATP 100 μM
JAK2 = JAK2 (Homo sapiens (Human), UniProt O60674); experiment: Enzyme assay (Assay Example^a 1), JAK2
Tyk2 = Tyk2 (Homo sapiens (Human), UniProt P29597); experiment: Enzyme assay (Assay Example^a 1), Tyk2; conditions: ATP 100 μM
Sequence of Tyk2 (P29597 whole entry): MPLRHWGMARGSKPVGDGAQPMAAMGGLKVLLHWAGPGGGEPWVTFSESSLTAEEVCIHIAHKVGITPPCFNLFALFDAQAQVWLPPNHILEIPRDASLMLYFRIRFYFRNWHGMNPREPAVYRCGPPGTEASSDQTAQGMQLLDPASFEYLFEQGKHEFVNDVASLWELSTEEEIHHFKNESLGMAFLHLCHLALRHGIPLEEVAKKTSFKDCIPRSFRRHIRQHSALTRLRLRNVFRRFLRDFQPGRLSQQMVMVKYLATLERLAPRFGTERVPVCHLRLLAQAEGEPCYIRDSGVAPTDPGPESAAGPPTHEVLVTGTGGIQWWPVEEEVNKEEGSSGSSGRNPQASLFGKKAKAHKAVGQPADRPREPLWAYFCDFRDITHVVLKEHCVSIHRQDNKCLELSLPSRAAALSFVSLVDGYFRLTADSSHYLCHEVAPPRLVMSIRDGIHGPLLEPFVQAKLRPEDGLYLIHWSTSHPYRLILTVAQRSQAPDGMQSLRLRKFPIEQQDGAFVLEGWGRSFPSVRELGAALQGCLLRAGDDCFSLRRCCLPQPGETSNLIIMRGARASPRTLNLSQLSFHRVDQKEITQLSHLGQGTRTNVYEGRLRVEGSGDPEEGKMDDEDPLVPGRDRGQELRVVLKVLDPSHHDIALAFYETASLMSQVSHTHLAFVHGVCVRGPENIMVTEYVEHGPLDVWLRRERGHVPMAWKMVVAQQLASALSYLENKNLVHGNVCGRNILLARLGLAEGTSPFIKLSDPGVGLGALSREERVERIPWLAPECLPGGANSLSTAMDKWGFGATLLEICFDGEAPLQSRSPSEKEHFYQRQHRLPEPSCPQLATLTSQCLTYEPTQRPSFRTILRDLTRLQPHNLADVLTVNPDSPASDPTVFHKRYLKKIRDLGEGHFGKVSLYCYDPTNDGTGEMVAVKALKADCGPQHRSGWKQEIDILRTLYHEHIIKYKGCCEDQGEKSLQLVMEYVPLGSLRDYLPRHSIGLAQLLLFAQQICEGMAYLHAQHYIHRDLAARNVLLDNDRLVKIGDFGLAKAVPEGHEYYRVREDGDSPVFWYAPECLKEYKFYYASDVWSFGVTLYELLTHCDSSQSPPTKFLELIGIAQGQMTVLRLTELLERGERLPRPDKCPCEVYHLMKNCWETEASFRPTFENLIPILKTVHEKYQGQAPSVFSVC

JAK3 = JAK3 (Homo sapiens (Human), UniProt P52333); experiment: Enzyme assay (Assay Example^a 1), JAK3; conditions: ATP 100 μM
Sequence of JAK3 (P52333 whole entry): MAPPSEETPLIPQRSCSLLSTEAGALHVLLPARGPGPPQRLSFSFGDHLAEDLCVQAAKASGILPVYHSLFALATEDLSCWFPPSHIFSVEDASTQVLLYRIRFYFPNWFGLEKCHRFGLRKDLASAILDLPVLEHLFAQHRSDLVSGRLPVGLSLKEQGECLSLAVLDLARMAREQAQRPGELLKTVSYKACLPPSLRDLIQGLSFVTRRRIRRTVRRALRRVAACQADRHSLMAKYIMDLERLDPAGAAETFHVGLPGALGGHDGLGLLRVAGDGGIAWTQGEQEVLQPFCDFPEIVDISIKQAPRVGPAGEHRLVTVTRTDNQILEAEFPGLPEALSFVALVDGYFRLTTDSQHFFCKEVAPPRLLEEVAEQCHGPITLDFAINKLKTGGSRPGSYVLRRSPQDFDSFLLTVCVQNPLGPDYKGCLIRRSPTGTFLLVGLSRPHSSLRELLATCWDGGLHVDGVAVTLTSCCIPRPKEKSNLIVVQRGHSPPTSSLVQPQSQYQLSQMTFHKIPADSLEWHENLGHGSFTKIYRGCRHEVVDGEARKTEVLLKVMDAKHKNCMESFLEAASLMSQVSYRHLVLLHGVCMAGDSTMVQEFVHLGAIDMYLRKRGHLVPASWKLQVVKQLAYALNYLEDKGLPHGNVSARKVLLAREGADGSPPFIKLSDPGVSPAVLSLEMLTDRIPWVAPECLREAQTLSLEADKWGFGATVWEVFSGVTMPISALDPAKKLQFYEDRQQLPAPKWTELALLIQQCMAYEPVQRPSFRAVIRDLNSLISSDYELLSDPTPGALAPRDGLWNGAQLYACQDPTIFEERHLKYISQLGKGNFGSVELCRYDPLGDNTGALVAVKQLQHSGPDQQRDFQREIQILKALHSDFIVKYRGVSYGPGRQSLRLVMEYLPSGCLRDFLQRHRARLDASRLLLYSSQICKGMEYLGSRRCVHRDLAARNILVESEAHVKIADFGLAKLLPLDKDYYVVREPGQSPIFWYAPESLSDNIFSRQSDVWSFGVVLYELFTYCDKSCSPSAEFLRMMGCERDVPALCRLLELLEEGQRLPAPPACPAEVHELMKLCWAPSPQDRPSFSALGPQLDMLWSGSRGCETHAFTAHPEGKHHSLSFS

Structure (SMILES)	IC50 (JAK1) [µM]	IC50 (JAK3) [µM]	IC50 (Tyk2) [µM]	also measured
OC(CN[C@H]1CC[C@@H](c2nnn3cnc4[nH]ccc4c23)CC1)(c1ccccc1)C(F)(F)F (mixture of isomers) [196a, 3-{[cis-4-(7H-pyrrolo[3,2-e][1,2,3]triazolo[1,5-c]pyrimidin-1-yl)cyclohexyl]amino}-1,1,1-trifluoro-2-phenylpropan-2-ol]	–	–	–	IC50 (JAK1; Table^a 154): 0.06 µM; IC50 (JAK2; ATP 100 μM, Table^a 154): 0.75 µM
OC(CN[C@H]1CC[C@H](c2nnn3cnc4[nH]ccc4c23)CC1)(c1ccccc1)C(F)(F)F (mixture of isomers) [196b, 3-{[trans-4-(7H-pyrrolo[3,2-e][1,2,3]triazolo[1,5-c]pyrimidin-1-yl)cyclohexyl]amino}-1,1,1-trifluoro-2-phenylpropan-2-ol]	–	–	–	IC50 (JAK1; Table^a 154): 0.0032 µM; IC50 (JAK2; ATP 100 μM, Table^a 154): 0.036 µM
c1cc2c(ncn3nnc(C4CCCNC4)c23)[nH]1 (racemic) [compound 15]	–	–	–	IC50 (JAK2; ATP 100 μM, Table^a 154): 2.5 µM; IC50 (Tyk2; Table^a 154): > 1 µM
OC(CN1CCC(c2nnn3cnc4[nH]ccc4c23)CC1)c1ccc(C(F)(F)F)cc1 (racemic) [compound 212, 2-[4-(7H-Pyrrolo[3,2-e][1,2,3]triazolo[1,5-c]pyrimidin-1-yl)piperidin-1-yl]-1-[4-(trifluoromethyl)phenyl]ethanol]	–	–	–	IC50 (JAK2; ATP 100 μM, Table^a 154): 0.047 µM; IC50 (Tyk2; Table^a 154): 0.45 µM
c1cc2c(ncn3cnc(C4CCCCC4)c23)[nH]1 [compound 2]	0.014	–	–	IC50 (JAK2; ATP 100 μM): 0.017 µM
CC1CCN(C(=O)OC(C)(C)C)CC1c1nnn2cnc3[nH]ccc3c12 (stereo not drawn) [compound 11]	–	–	–	IC50 (JAK2; ATP 100 μM, Table^a 154): 0.34 µM
CC(C)(C)OC(=O)N1CCC(c2nnn3cnc4[nH]ccc4c23)CC1 [compound 24]	–	–	–	IC50 (JAK2): 0.51 µM
c1cc2c(ncn3nnc(C4CCNCC4)c23)[nH]1 [compound 27]	–	–	–	IC50 (JAK2): > 1 µM
FC(F)(F)c1ccc(CN2CCC(c3nnn4cnc5[nH]ccc5c34)CC2)cc1 [compound 33]	–	–	–	IC50 (JAK2): 0.019 µM
Cc1cc(OC(F)(F)F)ccc1NC[C@H]1CC[C@H](c2nnn3cnc4[nH]ccc4c23)CC1 [compound 104]	–	–	–	IC50 (JAK2; ATP 100 μM, Table^a 154): > 1 µM; IC50 (JAK3; Table^a 154): > 1 µM; IC50 (Tyk2; Table^a 154): > 1 µM
N#Cc1ccc(NC[C@H]2CC[C@H](c3nnn4cnc5[nH]ccc5c34)CC2)cc1C(F)(F)F [compound 105]	–	–	–	IC50 (JAK2; ATP 100 μM, Table^a 154): 0.19 µM; IC50 (JAK3; Table^a 154): > 1 µM; IC50 (Tyk2; Table^a 154): 0.37 µM
FC(F)(F)Oc1ccc(CNC[C@H]2CC[C@H](c3nnn4cnc5[nH]ccc5c34)CC2)cc1 [compound 110]	–	–	–	IC50 (JAK1; Table^a 154): 0.0056 µM; IC50 (JAK2; ATP 100 μM, Table^a 154): 0.091 µM
FC(F)(F)c1cc(CN2CCC(c3nnn4cnc5[nH]ccc5c34)CC2)ccc1Cl [compound 155]	–	–	–	IC50 (JAK1; Table^a 154): 0.011 µM; IC50 (JAK2; ATP 100 μM, Table^a 154): 0.032 µM
COc1ccc(CN2CCC(c3nnn4cnc5[nH]ccc5c34)CC2)cn1 [compound 170, 1-{1-[(6-methoxypyridin-3-yl)methyl]piperidin-4-yl}-7H-pyrrolo[3,2-e][1,2,3]triazolo[1,5-c]pyrimidine]	–	–	–	IC50 (JAK1; Table^a 154): 0.021 µM; IC50 (JAK3; Table^a 154): 0.52 µM; IC50 (Tyk2; Table^a 154): > 1 µM
FC(F)(F)CNC[C@H]1CC[C@H](c2nnn3cnc4[nH]ccc4c23)CC1 [compound 188, N-{[trans-4-(7H-pyrrolo[3,2-e][1,2,3]triazolo[1,5-c]pyrimidin-1-yl)cyclohexyl]methyl}-2,2,2-trifluoroethanamine]	–	–	–	IC50 (JAK1; Table^a 154): 0.0012 µM; IC50 (JAK3; Table^a 154): 0.11 µM; IC50 (Tyk2; Table^a 154): 0.063 µM
CN(C)S(=O)(=O)c1ccc2c(c1)CCN2C[C@H]1CC[C@H](c2nnn3cnc4[nH]ccc4c23)CC1 [compound 190, 1-{[trans-4-(7H-pyrrolo[3,2-e][1,2,3]triazolo[1,5-c]pyrimidin-1-yl)cyclohexyl]methyl}-N,N-dimethylindoline-5-sulfonamide]	–	–	–	IC50 (JAK1; Table^a 154): 0.022 µM; IC50 (JAK3; Table^a 154): > 1 µM; IC50 (Tyk2; Table^a 154): 0.61 µM
N#Cc1cc(CN2CCC(c3nnn4cnc5[nH]ccc5c34)CC2)ccc1F [compound 223, 5-{[4-(7H-pyrrolo[3,2-e][1,2,3]triazolo[1,5-c]pyrimidin-1-yl)piperidin-1-yl]methyl}-2-fluorobenzonitrile]	0.015	0.94	> 1	–
N#C/C(=C\N1CCC(c2nnn3cnc4[nH]ccc4c23)CC1)c1ccc(Cl)cc1 [compound 235, (Z)-3-[4-(7H-pyrrolo[3,2-e][1,2,3]triazolo[1,5-c]pyrimidin-1-yl)piperidin-1-yl]-2-(4-chlorophenyl)acrylonitrile]	0.056	> 1	> 1	–

Structure (SMILES)	IC50 (JAK1) [µM]	IC50 (JAK3) [µM]	IC50 (Tyk2) [µM]	also measured
Cc1ccc(CN2CCC(c3nnn4cnc5[nH]ccc5c34)CC2)s1 [compound 236, 1-{1-[(5-methylthiophen-2-yl)methyl]piperidin-4-yl}-7H-pyrrolo[3,2-e][1,2,3]triazolo[1,5-c]pyrimidine]	0.0068	0.45	> 1	–
NC(=O)c1ccc(CN2CCC(c3nnn4cnc5[nH]ccc5c34)CC2)cc1 [compound 241, 4-{[4-(7H-pyrrolo[3,2-e][1,2,3]triazolo[1,5-c]pyrimidin-1-yl)piperidin-1-yl]methyl}benzamide]	0.046	> 1	> 1	–
OCCN(Cc1ccccc1)C[C@H]1CC[C@H](c2nnn3cnc4[nH]ccc4c23)CC1 [compound 268, 2-({[trans-4-(7H-pyrrolo[3,2-e][1,2,3]triazolo[1,5-c]pyrimidin-1-yl)cyclohexyl]methyl}(benzyl)amino)ethanol]	0.0044	0.72	0.12	–
CC1(C)CC1NC[C@H]1CC[C@H](c2nnn3cnc4[nH]ccc4c23)CC1 (stereo partly drawn) [compound 290, N-{[trans-4-(7H-pyrrolo[3,2-e][1,2,3]triazolo[1,5-c]pyrimidin-1-yl)cyclohexyl]methyl}-2,2-dimethylcyclopropanamine]	0.0076	0.5	0.27	–
OC1(CNC[C@H]2CC[C@H](c3nnn4cnc5[nH]ccc5c34)CC2)CCCCC1 [compound 313, 1-[({[trans-4-(7H-pyrrolo[3,2-e][1,2,3]triazolo[1,5-c]pyrimidin-1-yl)cyclohexyl]methyl)amino)methyl]cyclohexanol]	0.0084	> 1	0.51	–
Fc1ccc(C2(NC[C@H]3CC[C@H](c4nnn5cnc6[nH]ccc6c45)CC3)COC2)cc1 [compound 322, N-{[trans-4-(7H-pyrrolo[3,2-e][1,2,3]triazolo[1,5-c]pyrimidin-1-yl)cyclohexyl]methyl}-3-(4-fluorophenyl)oxetan-3-amine]	0.0013	0.2	0.43	–
Fc1ccc(C2(NC[C@H]3CC[C@H](c4nnn5cnc6[nH]ccc6c45)CC3)CC2)cc1 [compound 323, N-{[trans-4-(7H-pyrrolo[3,2-e][1,2,3]triazolo[1,5-c]pyrimidin-1-yl)cyclohexyl]methyl}-1-(4-fluorophenyl)cyclopropanamine]	–	0.83	0.78	IC50 (JAK2; ATP 100 μM): 0.034 µM
COCCN(C)C[C@H]1CC[C@H](c2nnn3cnc4[nH]ccc4c23)CC1 [compound 325, N-{[trans-4-(7H-pyrrolo[3,2-e][1,2,3]triazolo[1,5-c]pyrimidin-1-yl)cyclohexyl]methyl}-2-methoxy-N-methylethanamine]	0.011	> 1	0.88	–
FC1(F)CCN(C[C@H]2CC[C@H](c3nnn4cnc5[nH]ccc5c34)CC2)C1 [compound 328, 1-{trans-4-[(3,3-difluoropyrrolidin-1-yl)methyl]cyclohexyl}-7H-pyrrolo[3,2-e][1,2,3]triazolo[1,5-c]pyrimidine]	0.0073	0.53	0.9	–
O=C(NCC(O)(c1ccc(F)cc1)C(F)(F)F)[C@H]1CC[C@H](c2nnn3cnc4[nH]ccc4c23)CC1 (stereo partly drawn) [compound 347, trans-4-(7H-Pyrrolo[3,2-e][1,2,3]triazolo[1,5-c]pyrimidin-1-yl)-N-[3,3,3-trifluoro-2-(4-fluorophenyl)-2-hydroxypropyl]cyclohexanecarboxamide]	0.0069	0.65	> 1	–
N#Cc1ccc(CNC(=O)[C@H]2CC[C@H](c3nnn4cnc5[nH]ccc5c34)CC2)cc1 [compound 350, trans-N-(4-cyanobenzyl)-4-(7H-pyrrolo[3,2-e][1,2,3]triazolo[1,5-c]pyrimidin-1-yl)cyclohexanecarboxamide]	0.008	> 1	0.54	–
O=C(NCC(F)(F)F)[C@H]1CC[C@H](c2nnn3cnc4[nH]ccc4c23)CC1 [compound 354, trans-4-(7H-pyrrolo[3,2-e][1,2,3]triazolo[1,5-c]pyrimidin-1-yl)-N-(2,2,2-trifluoroethyl)cyclohexanecarboxamide]	0.0018	0.69	0.16	–
O=S(=O)(C[C@H]1CC[C@H](c2nnn3cnc4[nH]ccc4c23)CC1)c1ccc(F)cc1 [compound 365, 1-(trans-4-{[(4-fluorophenyl)sulfonyl]methyl}cyclohexyl)-7H-pyrrolo[3,2-e][1,2,3]triazolo[1,5-c]pyrimidine]	0.0054	0.74	0.34	–
N#Cc1ccc(CCN2CCC(c3nnn4cnc5[nH]ccc5c34)CC2)cc1 [compound 375, 4-{2-[4-(7H-Pyrrolo[3,2-e][1,2,3]triazolo[1,5-c]pyrimidin-1-yl)piperidin-1-yl]ethyl}benzonitrile]	0.047	> 1	> 1	–
FC(F)(F)CN(CC1CC1)[C@H]1CC[C@H](c2nnn3cnc4[nH]ccc4c23)CC1 [compound 413, trans-N-(Cyclopropylmethyl)-4-(7H-pyrrolo[3,2-e][1,2,3]triazolo[1,5-c]pyrimidin-1-yl)-N-(2,2,2-trifluoroethyl)cyclohexanamine]	0.02	> 1	0.62	–
N#CC(C#N)C[C@H]1CC[C@H](c2nnn3cnc4[nH]ccc4c23)CC1 [compound 432, 2-{[trans-4-(7H-Pyrrolo[3,2-e][1,2,3]triazolo[1,5-c]pyrimidin-1-yl)cyclohexyl]methyl}malononitrile]	–	0.17	0.067	IC50 (JAK2; ATP 100 μM): 0.0088 µM
N#CCC[C@H]1CC[C@H](c2nnn3cnc4[nH]ccc4c23)CC1 [compound 441, 3-[trans-4-(7H-Pyrrolo[3,2-e][1,2,3]triazolo[1,5-c]pyrimidin-1-yl)cyclohexyl]propanenitrile]	0.0016	0.12	0.024	–
